The text below walks through data of PubChem BioAssay (NCI).

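Growth conditions: 96-well plates. Treatment: test compound, 48 hours, 5 concentrations. Analysis: linear interpolation between bracketing concentrations; unreached endpoints set to highest concentration. TGI: concentration producing complete growth inhibition.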 Where a SMILES comes first, the peptide text is derived from it. The star is where a group is joined. Cbz = O=C(OCc1ccccc1)*

Holding throughout (assay): DTP human tumour cell line panel, 48 h
The test system of experiment [1] is HOP-92 NSCLC.
Experiment [2] has as its system NCI-H23 lung.
The test system of experiment [3] is NCI/ADR-RES ovarian.
Experiment [4] relates to SK-MEL-5 melanoma.
Experiment [5] has as its system CCRF-CEM leukemia.
Experiment [6] relates to HS 578T breast.
The test system of experiment [7] is MCF7 breast.
Experiment [8] concerns RXF 393 renal.
The test system of experiment [9] is OVCAR-3 ovarian.
Experiment [10] has as its system SF-268 CNS.

Regarding `CC(=O)OC1[C@@H](OC(C)=O)CN(OCc2ccccc2)C[C@H]1OC(C)=O` (some centres not stated), the TGI in experiment [1], in [2], in experiment [3], in [4], in experiment [5] and in experiment [6] was greater than 100 µM each time. In addition, the concentration for total growth inhibition (TGI) in experiment [7], in [8], in experiment [9] and in [10] was greater than 100 µM throughout.
As to `COC(=O)c1ccc(C)cc1CC1Cc2c(C)cccc2C1=O` (configuration not stated), the TGI (in general, the concentration giving total growth inhibition) was 46.8 µM in [1]; greater than 46.6 µM in experiment [2]; 17.2 µM in experiment [3]; 19.7 µM in [4]; 62.2 µM in [5]; 34 µM in [6]. The TGI is 7.93 µM in experiment [7], 34.3 µM in experiment [8], 16.1 µM in experiment [9] and 44.7 µM in [10].
Consider `COCn1c(C)c(C)c2c(=O)oc(C)nc21`, for which the TGI in [1], in experiment [2], in [3], in experiment [4], in experiment [5] and in experiment [6] was greater than 100 µM in each case. Moreover, the concentration for total growth inhibition (TGI) in experiment [7], in experiment [8] and in [10] was greater than 100 µM each time.
For `C=CCN1C[C@@H](C)N([C@@H](c2ccc(C(=O)N(CC)CC)cc2)c2cccc(OC)c2)C[C@@H]1C`, the TGI in experiment [1], in experiment [2], in [3], in experiment [4], in experiment [5] and in [6] was greater than 100 µM throughout. The TGI in experiment [7], in [9] and in experiment [10] was greater than 100 µM each time.
Consider `COC(=O)C1=COc2c(n(C)c3ccccc23)-c2ccccc21`, for which the TGI in experiment [2], in experiment [3], in [4], in [5], in experiment [6] and in experiment [7] was greater than 100 µM in each case. The TGI in experiment [8], in [9] and in [10] was greater than 100 µM in each case.
In the case of `Cc1nc2ccccc2n1Cc1nnc2n1N=C(c1ccccc1)CS2`, the TGI in [2], in experiment [3], in experiment [4], in [5], in [6] and in experiment [7] was greater than 100 µM each time. In addition, the TGI in [9] and in experiment [10] was greater than 100 µM in each case.
On to `CC(=O)OCCOCCN1CCN(c2c(O)c3c(c(O)c2Cl)C(=O)C=CC3=O)CC1`, for which the TGI was determined as 0.822 µM in [1]; 1.98 µM in experiment [2]; 1.21 µM in [3]; 2.97 µM in experiment [4]; 7.59 µM in experiment [6]; 0.976 µM in experiment [7]. The TGI in experiment [8] is 1.93 µM; in experiment [9], 2 µM; in experiment [10] it was 3.62 µM.
On to `Cc1c(-c2ccc(O)c(O)c2)oc(=O)c2c(O)cccc12`, for which the TGI in experiment [1] is 58.2 µM; in experiment [2] it was 22 µM; in experiment [3], 29.7 µM; in experiment [4], 24.8 µM; in experiment [5] it was greater than 100 µM; in experiment [6], 23.9 µM. In addition, the TGI in [7] is 34.4 µM; in experiment [8], 36 µM; in [9], 66.1 µM; in experiment [10], 50.7 µM.
Take `Cc1ccc([N+](=O)[O-])cc1S(=O)(=O)Nc1ccc(C2=NN(S(=O)(=O)c3cc([N+](=O)[O-])ccc3C)C(c3ccco3)C2)cc1` (configuration not stated): the TGI in [1] is 47.7 µM; in [2] it was greater than 100 µM; in experiment [3] it was greater than 100 µM; in [4], greater than 100 µM; in experiment [5], greater than 100 µM; in experiment [6], greater than 100 µM. For the same compound, the TGI in experiment [7], in experiment [8], in experiment [9] and in [10] was greater than 100 µM in each case.
With `C[N+](C)(C)C(C1=CCCC1=O)c1ccccc1` (configuration not stated), the TGI in experiment [1] is 85.3 µM; in experiment [2], greater than 100 µM; in experiment [3] it was greater than 100 µM; in experiment [4] it was greater than 100 µM; in [5], greater than 100 µM; in experiment [6], 66.3 µM. In addition, the TGI in experiment [7] was 56.7 µM; in experiment [8], 41.8 µM; in [9], greater than 100 µM; in experiment [10] it was 60.1 µM.
In the case of `Nc1ccc(OCCCc2c(-c3ccccc3)nc(N)[nH]c2=O)cc1`, the TGI in experiment [2], in experiment [3], in experiment [4], in experiment [5], in experiment [6] and in experiment [7] was greater than 100 µM in each case. Also, the TGI in experiment [8], in [9] and in [10] was greater than 100 µM in each case.
On to `CC(C)N(/C(F)=N\C(=O)Nc1ccccc1C(F)(F)F)C(C)C`, for which the TGI is 64.2 µM in [1]; greater than 100 µM in [2]; greater than 100 µM in experiment [3]; greater than 100 µM in experiment [4]; greater than 100 µM in experiment [5]; greater than 100 µM in experiment [6]. The TGI in [7], in experiment [9] and in [10] was greater than 100 µM each time.
In the case of `S=C(c1c[nH]c2ccccc12)N1CCCCC1`, the TGI in experiment [2], in experiment [3], in experiment [4], in experiment [5], in experiment [6] and in [7] was greater than 100 µM each time. For the same compound, the TGI in experiment [8], in experiment [9] and in [10] was greater than 100 µM throughout.
With `NC(C(=O)OC(=O)c1ccccc1)C(=O)OC(=O)c1ccccc1`, the TGI in [2], in experiment [3], in experiment [4], in experiment [5], in experiment [6] and in [7] was greater than 100 µM each time. The TGI in [8], in experiment [9] and in experiment [10] was greater than 100 µM each time.
In the case of `CC(=O)C1=C(C)N(c2ccccc2)C2(O)C=CC(=O)C3=C(O)c4ccccc4C(=O)C312` (configuration not stated), the total growth inhibition concentration (TGI) in experiment [1] is 63.9 µM; in [2], 46.3 µM; in experiment [3] it was 37.5 µM; in [4], 24.9 µM; in experiment [5], greater than 100 µM; in experiment [6], greater than 100 µM. The total growth inhibition concentration (TGI) in experiment [7] was greater than 100 µM; in experiment [8] it was 36.6 µM; in [9], 11.4 µM; in experiment [10], 57.8 µM.
As to `O=c1[nH]c(=O)n2n1C1C=CC2CC1`, the TGI in experiment [1], in [2], in experiment [3], in [4], in [5] and in experiment [6] was greater than 100 µM in each case. Moreover, the TGI in [7], in [9] and in [10] was greater than 100 µM each time.
As for `O=C(CCc1ccc(O)cc1)NCCCNC(=O)CCc1ccc(O)cc1`, the concentration for total growth inhibition (TGI) in experiment [2], in experiment [3], in experiment [4], in experiment [5], in [6] and in experiment [7] was greater than 100 µM throughout. Also, the TGI in experiment [8], in experiment [9] and in experiment [10] was greater than 100 µM in each case.
With `CCOC(=O)CNC(=O)C(C)NC(=O)C(NC(=O)OCc1ccccc1)C(C)C` (stereo not drawn) (Cbz-Val-Ala-Gly-OEt; configuration not given here), the TGI in [1], in experiment [2], in experiment [3], in experiment [4], in experiment [6] and in experiment [7] was greater than 100 µM throughout. In addition, the total growth inhibition concentration (TGI) in experiment [8], in experiment [9] and in experiment [10] was greater than 100 µM each time.
Turning to `Nc1c2c(nc3ccccc13)CCCc1ccccc1-2`, the TGI in [1] is 22.6 µM; in experiment [2], greater than 100 µM; in [3], 69.7 µM; in experiment [4], 21 µM; in experiment [6], 52 µM; in [7], 29.2 µM. Besides, the TGI was 24.7 µM in experiment [8], greater than 100 µM in [9] and 38.4 µM in experiment [10].
Turning to `Cc1ccc(S(=O)(=O)N2CCCSCCN(S(=O)(=O)c3ccc(C)cc3)CCCSCC2)cc1`, the TGI in [1], in experiment [2], in experiment [3], in experiment [4], in experiment [6] and in experiment [7] was greater than 100 µM throughout. For the same compound, the TGI in experiment [8], in experiment [9] and in experiment [10] was greater than 100 µM throughout.
Turning to `CCOP(C)(=O)/C(Cc1ccc(OC)c(OC)c1)=N\O` (configuration not stated), the TGI in experiment [1], in experiment [2], in experiment [3], in experiment [4], in experiment [5] and in experiment [6] was greater than 100 µM each time. Also, the TGI in experiment [7], in [8] and in [9] was greater than 100 µM each time.
`NC(=O)C1CCCN1C(=O)N(CCCl)N=O` (configuration not stated): the TGI in [1], in experiment [2], in experiment [3], in experiment [4], in experiment [5] and in [6] was greater than 100 µM throughout. Further, the TGI in experiment [7], in experiment [9] and in [10] was greater than 100 µM throughout.
As for `O=C1CCCC2=C1CC1=C(CCCC1=O)N2c1cccc([N+](=O)[O-])c1`, the TGI in [2], in experiment [3], in [4], in experiment [5], in experiment [6] and in experiment [7] was greater than 100 µM in each case. In addition, the TGI in experiment [8], in [9] and in experiment [10] was greater than 100 µM in each case.
Turning to `CCOC(=O)C1=C(C)NC(C)=C(C(=O)OCC)C1c1ccc(C)cc1`, the TGI in experiment [1] is 51.5 µM; in experiment [2], greater than 100 µM; in experiment [4], 35.3 µM; in experiment [6], greater than 100 µM; in experiment [7], 47.3 µM; in [8] it was 75.5 µM. Also, the TGI in [9] is 87.7 µM; in experiment [10], greater than 100 µM.
Turning to `NC(=O)SCC(=O)Nc1ccc2ncccc2c1`, the TGI in experiment [1], in experiment [2], in experiment [3], in [4], in experiment [5] and in [6] was greater than 100 µM throughout. Also, the TGI in experiment [7], in experiment [9] and in [10] was greater than 100 µM in each case.
As for `O=[N+]([O-])c1ccc(O)c(C=NCC2CCCN3CCCCC23)c1` (configuration not stated), the TGI is greater than 100 µM in experiment [2]; greater than 100 µM in experiment [3]; 69.9 µM in [4]; 46.6 µM in [6]; greater than 100 µM in experiment [7]; 59.7 µM in [8]. For the same compound, the total growth inhibition concentration (TGI) in experiment [9] is greater than 100 µM; in [10] it was 75.5 µM.
Regarding `Brc1ccc(-c2cc(-c3ccc4c(c3)OCO4)c(-c3cccs3)n2Cc2ccccc2)cc1`, the TGI in [3], in [4], in experiment [5], in experiment [6], in experiment [7] and in [8] was greater than 100 µM in each case. This compound also came in with a TGI in experiment [10] greater than 100 µM.
With `CC(C)(O)CCc1ccc(O)c2c(=O)c3c(O)c4c(cc3oc12)O[C@H]1OC=C[C@@]41O`, the TGI in [1] is 14.8 µM; in [2] it was 0.64 µM; in [3], 0.298 µM; in experiment [5], greater than 100 µM; in experiment [6], 41.6 µM; in [7], less than 0.01 µM. Moreover, the results for the concentration for total growth inhibition (TGI) in [8], in experiment [9] and in experiment [10] were 1.44 µM, less than 0.01 µM and 8.54 µM, respectively.
On to `C/C(=C1\C(=O)C(c2ccccc2)N(c2ccccc2)C1=O)c1ccc(Cl)cc1` (configuration not stated), for which the concentration for total growth inhibition (TGI) in experiment [1] was 13.6 µM; in experiment [2] it was 31.9 µM; in experiment [3], greater than 100 µM; in experiment [4] it was 28.3 µM; in [6], 40.9 µM; in experiment [7], greater than 100 µM. Moreover, the values for the TGI in experiment [8], in experiment [9] and in [10] were 79.2 µM, 30.6 µM and 47 µM, respectively.
